From patent publication US20220323533A1, “COMPOSITION FOR PREVENTING, INHIBITING OR TREATING INFECTION OF CORONAVIRUS” (priority 2021, published 2022)

What was measured:
[1] = tested on: Vero cells
[2] = tested on: SARS-CoV-2; assay type: cell-based

Compound | CC50 [1] [µg/mL] | IC50 ([2]; SARS-CoV-2 (0.0125 MOI) in Vero cells, 24 hours, N protein immunofluorescence, highest concentration 500 μg/ml, two repeated experiments) [µg/mL] | inhibition of infection with SARS-CoV-2 (in words) ([2]; Vero cells, up to 500 μg/ml)
OC[C@H]1NC[C@H](O)[C@@H](O)[C@@H]1O [Comparative Example 2, 1-Deoxynojirimycin] | >500 | >500 | did not inhibit infection
Propolis [Comparative Example 1] | >500 | – | –
